Several values for one entry are separate records, joined by “and”; a condition that tells them apart may be missing. Equal entries are not always repeated.
Experiments:
Assay in all cases: area under concentration-response curve (viability) (AUC (a.u.)); higher = less active
Conditions in all cases: 48 h
[1] = tested on: CU-ACC2
Procedure, shortened: (§1)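 Library compounds were tested at 11 concentrations against three adrenocortical carcinoma cell lines in 1,536-well plates. CellTiter-Glo luminescence was read after 48 h and normalised per plate to vehicle and empty-well controls. Only inhibitory or non-responding curve classes from fitted concentration-response curves contributed AC50 and area under the curve.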

[2] = tested on: NCI-H295R
Procedure, shortened: as §1

[3] = tested on: CU-ACC1
Procedure, shortened: as §1

Row | Compound | area under concentration-response curve [1] | area under concentration-response curve [2] | area under concentration-response curve [3]
1 | CC(C)(F)C[C@H](N[C@@H](c1ccc(-c2ccc([S+](C)(=O)[O-])cc2)cc1)C(F)(F)F)C(=O)NC1(C#N)CC1 | 587 | 527 | 481
2 | CN(C)C1=CC(=CC=C1)C\2=C\3C(=O)N(NC3=C/C(=O)N2C)C4=CC=CC=C4Cl | 512 | 533 | 513
3 | C[C@]12CC[C@@H]3c4ccc(O)cc4C[C@@H](CCCCCCCCC[S+]([O-])CCCC(F)(F)C(F)(F)F)[C@H]3[C@@H]1CC[C@@H]2O (some centres not stated) | 564 | 530 | 391
4 | COC1=C(NC2=NC=C(Cl)C(=N2)N[C@@H]3[C@H]\4C[C@@H](\C=C4)[C@H]3C(N)=O)C=CC5=C1CCC(CC5)N6CCOCC6 (some centres not stated) | 600 | 460 | 526
5 | Cc1cc(SCc2sc(-c3ccc(C(F)(F)F)c(F)c3)nc2C)ccc1OCC(=O)O | 493 | 565 | 539
6 | CN[C@@H]1Cc2cccc3[nH]c(=O)n(c23)C1 | 659 | 590 | 576
7 | Cc1cccc(-c2n[nH]cc2-c2ccc3ncccc3n2)n1 | 567 | 524 | 468
8 | O=C(Cc1ccc(-c2ccc(OCCN3CCOCC3)cc2)cn1)NCc1ccccc1 | 531 | 493 | 397
9 | O=C1\C=C/C[C@@H]2[C@H]3CCCN4CCC[C@@H](CN12)[C@@H]34 | 509 | 546 | 541
10 | CC1(C)CCC(=C(CN2CCN(CC2)C3=CC=C(C=C3)C(=O)N[S+]([O-])(=O)C4=CC(=C(N[C@H](CCN5CCOCC5)CSC6=CC=CC=C6)C=C4)[S+]([O-])(=O)C(F)(F)F)\C1)/C7=CC=C(Cl)C=C7 | 373 | 463 | 439
11 | CC(C(C)N1CC(=O)NC(=O)C1)N1CC(=O)NC(=O)C1 (configuration not stated) | 605 | 538 | 488
12 | Oc1ccc(C2CCN(c3ccnc4ccccc34)CC2)cc1O | 549 | 523 | 497
13 | O=C([O-])C(O)Cc1ccc(O)c(O)c1 (configuration not stated) | 589 | 553 | 460
14 | CC(C)Cn1cnc2c(N)nc3ccccc3c21 | 683 | 630 | 640
15 | OC1=CC2=C(C(=C1)O)C(=O)\C(=C(/O2)C3=CC(=C(O)C(=C3)O)O)O | 600 | 508 | 553
16 | O=C(O)c1ccc(CCCc2ccc(OCCc3ccc(F)cc3)cc2)o1 | 616 | 548 | 536
17 | Clc1ccc(-c2nc3sccn3c2/C=N/OCc2ccc(Cl)c(Cl)c2)cc1 | 549 | 425 | 490
18 | Oc1ccc(C2CNCCc3c2cc(O)c(O)c3Cl)cc1 (configuration not stated) | 538 | 524 | 468
19 | CN(CCOc1ccc(C[C@H](Nc2ccccc2C(=O)c2ccccc2)C(=O)O)cc1)c1ccccn1 | 413 | 388 and 454 | 429 and 437
20 | C[C@H](O)[C@H]1[C@@H]2[C@H](C)C(=C(\N2C1=O)C(O)=O)/S[C@@H]3CN[C@H](CN[S+](N)([O-])=O)C3 | 643 | 578 | 516
21 | Cn1cnc2c(F)c(Nc3ccc(Br)cc3Cl)c(C(=O)NOCCO)cc21 | 493 | 500 | 463
22 | CCCC(CCC)C(=O)[O-] | 482 | 442 | 445
23 | CCN(CC)CCCC(C)Nc1c2ccc(Cl)cc2nc2ccc(OC)cc12.Cl.Cl.O.O (configuration not stated) | 561 | 556 | 402
24 | CC(C)(C)C(=O)CN1C(=O)[C@H](NC(=O)Nc2cccc(C(=O)O)c2)CN(C2CCCCC2)c2ccccc21 | 612 | 559 | 518
25 | COc1cc2c(NC3CCN(C4CCCCC4)CC3)nc(N3CCCN(C(C)C)CC3)nc2cc1OCCCN1CCCCC1 | 562 | 519 | 534
26 | N[C@@H](CC(=O)N1CCn2c(nnc2C(F)(F)F)C1)Cc1cc(F)c(F)cc1F | 597 | 555 | 554
27 | Cc1ccc(-c2ccc(C)cn2)nc1 | 342 | 384 | 405
28 | CC[S+](=O)([O-])N1CCC([C@@H](C)n2c(C)c(/C(O)=N/Cc3c(OC)cc(C)nc3O)c3ccccc32)CC1 | 605 | 537 | 509
29 | CN1CCN(c2ccc(OC(F)(F)F)c(Nc3ncc4c(n3)-c3c(c(C(N)=O)nn3CCO)CC4)c2)CC1 | 587 | 460 | 498

Reference: the supplement of paper PMC10949913
